Experimental data reported in patent US20190308988A1, “OPIOID RECEPTOR ANTAGONIST PRODRUGS” (Nirsum Laboratories, Inc., priority 2017, published 2019).

How the values were obtained:
[1] = Liver S9 fraction stability, dog; type: in vitro ADME; conditions: dog liver S9 1.0 mg/ml, 2 μM, 37° C.
Protocol: (§1) Liver S9 fraction stability determination of the test compounds in dog, cynomolgus monkey and human is performed using HPLC-MS. Test compound (2 μM, 0.1% DMSO, 1% Methanol final concentration) was assessed for stability in a 50 μl phosphate buffer containing 1.0 mg/ml S9 protein from each of the three species and 5 mM D-saccharic acid-1, 4-lactone. Samples were incubated at 37° C. for 60 minutes and the % compound remaining was assessed.

[2] = Liver S9 fraction stability, monkey; type: in vitro ADME, cynomolgus monkey; conditions: monkey liver S9 1.0 mg/ml, 2 μM, 37° C.
Protocol: as §1

[3] = Liver S9 fraction stability, human; type: in vitro ADME; conditions: human liver S9 1.0 mg/ml, 2 μM, 37° C.
Protocol: as §1

[4] = Plasma stability, monkey plasma (HPLC-MS); type: in vitro ADME, Cynomolgus Monkey; conditions: 2 μM, 37° C.
Protocol: Plasma Stability Determination of the Test Compounds in Rat, Dog, Cynomolgus Monkey and human plasma is performed using HPLC-MS. For rat, incubations are carried out in 96-well polypropylene plates in 5 aliquots of 70 μL each (one for each time point). […] Five time points are analyzed (0, 15, 120, 480 and 1440 min). […] All incubations are performed in duplicates. The samples are analyzed by HPLC-MS. The percentage of parent compound remaining after incubation in plasma is determined.

With `CCCCCCCCCCCCCCCC(=O)OC1CCCn2c1nc(C)c(CCN1CCC(c3noc4cc(F)ccc34)CC1)c2=O` (stereo not shown) [Paliperidone palmitate, reference compound] the “% remaining at 60 minutes, Dog” value [1] was 56.4%, the “% remaining at 60 minutes, Monkey” value [2] was 57.4% and the “% remaining at 60 minutes, Human” value [3] was 47.8%. The “% remaining at time point in minutes, 15 min” value [4] was 92%.
